Assay results as given in patent publication US7820623B2 (priority 2006, dated 2010).
Bridge positions count the residues as written; N and C are the ends. Square brackets hold non-standard residues; d marks the D form. Peptide text beside a SMILES is read from it. 1Nal = N[C@@H](Cc1cccc2ccccc12)C(=O)O

Columns and labels:
[1] = tested on: thapsigargin-induced IFN-g production in human whole blood; format: cell-based; conditions: read-out: Analogue Activity (IC50) WB/IFNg
[2] = tested on: thapsigargin-induced IL-2 production in human whole blood; conditions: read-out: Analogue Activity (IC50) WB/IL-2

Compound	IC50 [1] [nM]	IC50 [2] [nM]
CC[C@H](C)[C@@H]1NC(=O)[C@H](CCCCN)NC(=O)[C@@H](NC(=O)[C@H](CCCCN)NC(=O)[C@@H](NC(=O)[C@H](CC(N)=O)NC(=O)[C@@H](NC(=O)[C@@H](NC(=O)[C@@H](NC(=O)CN)C(C)C)[C@@H](C)CC)[C@@H](C)CC)C(C)C)CSSC[C@@H]2NC(=O)[C@H](CCCCN)NC(=O)CNC(=O)[C@H](Cc3cccc4ccccc34)NC(=O)[C@H](CCCNC(=N)N)NC(=O)[C@H](CCSC)NC(=O)CNC(=O)[C@H](C)NC(=O)[C@H](CCCCN)NC(=O)[C@H](CCCCN)NC(=O)[C@@H]3CSSC[C@@H](C(=O)N[C@H](C(=O)N4CCC[C@H]4C(=O)N[C@@H](CCCCN)C(=O)O)[C@@H](C)O)NC(=O)[C@H](Cc4c[nH]cn4)NC(=O)[C@H](CSSC[C@H](NC(=O)[C@H](CCC(N)=O)NC(=O)[C@H](CCCNC(=N)N)NC(=O)[C@H](CO)NC1=O)C(=O)N[C@@H](CC(C)C)C(=O)N[C@@H](CCC(=O)O)C(=O)N1CCC[C@H]1C(=O)N3)NC(=O)[C@H](CCCCN)NC(=O)CNC(=O)[C@H](CC(N)=O)NC(=O)[C@H](CCSC)NC2=O [F25Nal] (H-GVIINVKCKISRQCLEPCKKAGMR[1Nal]GKCMNGKCHCTPK-OH; disulfide 8-28, 14-33, 18-35)	1.69	1.73
CC[C@H](C)[C@@H]1NC(=O)[C@H](CCCCN)NC(=O)[C@@H](NC(=O)[C@H](CCCCN)NC(=O)[C@@H](NC(=O)[C@H](CC(N)=O)NC(=O)[C@@H](NC(=O)[C@@H](NC(=O)[C@@H](NC(=O)CN)C(C)C)[C@@H](C)CC)[C@@H](C)CC)C(C)C)CSSC[C@@H]2NC(=O)[C@H](CCCCN)NC(=O)CNC(=O)[C@H](CCCNC(=N)N)NC(=O)[C@H](CCCNC(=N)N)NC(=O)[C@H](CCSC)NC(=O)CNC(=O)[C@H](C)NC(=O)[C@H](CCCCN)NC(=O)[C@H](CCCCN)NC(=O)[C@@H]3CSSC[C@@H](C(=O)N[C@H](C(=O)N4CCC[C@H]4C(=O)N[C@@H](CCCCN)C(=O)O)[C@@H](C)O)NC(=O)[C@H](Cc4c[nH]cn4)NC(=O)[C@H](CSSC[C@H](NC(=O)[C@H](CCC(N)=O)NC(=O)[C@H](CCCNC(=N)N)NC(=O)[C@H](CO)NC1=O)C(=O)N[C@@H](CC(C)C)C(=O)N[C@@H](CCC(=O)O)C(=O)N1CCC[C@H]1C(=O)N3)NC(=O)[C@H](CCCCN)NC(=O)CNC(=O)[C@H](CC(N)=O)NC(=O)[C@H](CCSC)NC2=O [F25R] (H-GVIINVKCKISRQCLEPCKKAGMRRGKCMNGKCHCTPK-OH; disulfide 8-28, 14-33, 18-35)	31	25
CC[C@H](C)[C@@H]1NC(=O)[C@H](CCCCN)NC(=O)[C@@H](NC(=O)[C@H](CCCCN)NC(=O)[C@@H](NC(=O)[C@H](CC(N)=O)NC(=O)[C@@H](NC(=O)[C@@H](NC(=O)[C@@H](NC(=O)[C@H](C)N)C(C)C)[C@@H](C)CC)[C@@H](C)CC)C(C)C)CSSC[C@@H]2NC(=O)[C@H](CCCCN)NC(=O)CNC(=O)[C@H](Cc3ccccc3)NC(=O)[C@H](CCCNC(=N)N)NC(=O)[C@H](CCSC)NC(=O)CNC(=O)[C@H](C)NC(=O)[C@H](CCCCN)NC(=O)[C@H](CCCCN)NC(=O)[C@@H]3CSSC[C@@H](C(=O)N[C@H](C(=O)N4CCC[C@H]4C(=O)N[C@@H](CCCCN)C(=O)O)[C@@H](C)O)NC(=O)[C@H](Cc4c[nH]cn4)NC(=O)[C@H](CSSC[C@H](NC(=O)[C@H](CCC(N)=O)NC(=O)[C@H](CCCNC(=N)N)NC(=O)[C@H](CO)NC1=O)C(=O)N[C@@H](CC(C)C)C(=O)N[C@@H](CCC(=O)O)C(=O)N1CCC[C@H]1C(=O)N3)NC(=O)[C@H](CCCCN)NC(=O)CNC(=O)[C@H](CC(N)=O)NC(=O)[C@H](CCSC)NC2=O [G1A] (H-AVIINVKCKISRQCLEPCKKAGMRFGKCMNGKCHCTPK-OH; disulfide 8-28, 14-33, 18-35)	0.119	0.122
CC[C@H](C)[C@@H]1NC(=O)[C@H](CCCCN)NC(=O)[C@@H](NC(=O)[C@H](CCCCN)NC(=O)[C@@H](NC(=O)[C@H](CC(N)=O)NC(=O)[C@@H](NC(=O)[C@@H](NC(=O)[C@@H](NC(=O)[C@@H](N)CCC(=O)O)C(C)C)[C@@H](C)CC)[C@@H](C)CC)C(C)C)CSSC[C@@H]2NC(=O)[C@H](CCCCN)NC(=O)CNC(=O)[C@H](Cc3ccccc3)NC(=O)[C@H](CCCNC(=N)N)NC(=O)[C@H](CCSC)NC(=O)CNC(=O)[C@H](C)NC(=O)[C@H](CCCCN)NC(=O)[C@H](CCCCN)NC(=O)[C@@H]3CSSC[C@@H](C(=O)N[C@H](C(=O)N4CCC[C@H]4C(=O)N[C@@H](CCCCN)C(=O)O)[C@@H](C)O)NC(=O)[C@H](Cc4c[nH]cn4)NC(=O)[C@H](CSSC[C@H](NC(=O)[C@H](CCC(N)=O)NC(=O)[C@H](CCCNC(=N)N)NC(=O)[C@H](CO)NC1=O)C(=O)N[C@@H](CC(C)C)C(=O)N[C@@H](CCC(=O)O)C(=O)N1CCC[C@H]1C(=O)N3)NC(=O)[C@H](CCCCN)NC(=O)CNC(=O)[C@H](CC(N)=O)NC(=O)[C@H](CCSC)NC2=O [G1E] (H-EVIINVKCKISRQCLEPCKKAGMRFGKCMNGKCHCTPK-OH; disulfide 8-28, 14-33, 18-35)	1.25	1.22
CC[C@H](C)[C@@H]1NC(=O)[C@H](CCCCN)NC(=O)[C@@H](NC(=O)[C@H](CCCCN)NC(=O)[C@@H](NC(=O)[C@H](CC(N)=O)NC(=O)[C@@H](NC(=O)[C@@H](NC(=O)[C@@H](NC(=O)[C@@H](N)CCCNC(=N)N)C(C)C)[C@@H](C)CC)[C@@H](C)CC)C(C)C)CSSC[C@@H]2NC(=O)[C@H](CCCCN)NC(=O)CNC(=O)[C@H](Cc3ccccc3)NC(=O)[C@H](CCCNC(=N)N)NC(=O)[C@H](CCSC)NC(=O)CNC(=O)[C@H](C)NC(=O)[C@H](CCCCN)NC(=O)[C@H](CCCCN)NC(=O)[C@@H]3CSSC[C@@H](C(=O)N[C@H](C(=O)N4CCC[C@H]4C(=O)N[C@@H](CCCCN)C(=O)O)[C@@H](C)O)NC(=O)[C@H](Cc4c[nH]cn4)NC(=O)[C@H](CSSC[C@H](NC(=O)[C@H](CCC(N)=O)NC(=O)[C@H](CCCNC(=N)N)NC(=O)[C@H](CO)NC1=O)C(=O)N[C@@H](CC(C)C)C(=O)N[C@@H](CCC(=O)O)C(=O)N1CCC[C@H]1C(=O)N3)NC(=O)[C@H](CCCCN)NC(=O)CNC(=O)[C@H](CC(N)=O)NC(=O)[C@H](CCSC)NC2=O [G1R] (H-RVIINVKCKISRQCLEPCKKAGMRFGKCMNGKCHCTPK-OH; disulfide 8-28, 14-33, 18-35)	0.991	0.554
CC[C@H](C)[C@@H]1NC(=O)[C@H](CCCCN)NC(=O)[C@@H](NC(=O)[C@H](CCCCN)NC(=O)[C@@H](NC(=O)[C@H](CC(N)=O)NC(=O)[C@@H](NC(=O)[C@@H](NC(=O)[C@@H](NC(=O)CN)C(C)C)[C@@H](C)CC)[C@@H](C)CC)C(C)C)CSSC[C@@H]2NC(=O)[C@H](CCCCN)NC(=O)CNC(=O)[C@H](Cc3ccccc3)NC(=O)[C@H](CCCNC(=N)N)NC(=O)[C@H](CCSC)NC(=O)[C@H](CCC(=O)O)NC(=O)[C@H](C)NC(=O)[C@H](CCCCN)NC(=O)[C@H](CCCCN)NC(=O)[C@@H]3CSSC[C@@H](C(=O)N[C@H](C(=O)N4CCC[C@H]4C(=O)N[C@@H](CCCCN)C(=O)O)[C@@H](C)O)NC(=O)[C@H](Cc4c[nH]cn4)NC(=O)[C@H](CSSC[C@H](NC(=O)[C@H](CCC(N)=O)NC(=O)[C@H](CCCNC(=N)N)NC(=O)[C@H](CO)NC1=O)C(=O)N[C@@H](CC(C)C)C(=O)N[C@@H](CCC(=O)O)C(=O)N1CCC[C@H]1C(=O)N3)NC(=O)[C@H](CCCCN)NC(=O)CNC(=O)[C@H](CC(N)=O)NC(=O)[C@H](CCSC)NC2=O [G22E] (H-GVIINVKCKISRQCLEPCKKAEMRFGKCMNGKCHCTPK-OH; disulfide 8-28, 14-33, 18-35)	0.164	0.109
CC[C@H](C)[C@@H]1NC(=O)[C@H](CCCCN)NC(=O)[C@@H](NC(=O)[C@H](CCCCN)NC(=O)[C@@H](NC(=O)[C@H](CC(N)=O)NC(=O)[C@@H](NC(=O)[C@@H](NC(=O)[C@@H](NC(=O)CN)C(C)C)[C@@H](C)CC)[C@@H](C)CC)C(C)C)CSSC[C@@H]2NC(=O)[C@H](CCCCN)NC(=O)CNC(=O)[C@H](Cc3ccccc3)NC(=O)[C@H](CCCNC(=N)N)NC(=O)[C@H](CCSC)NC(=O)[C@H](Cc3cccc4ccccc34)NC(=O)[C@H](C)NC(=O)[C@H](CCCCN)NC(=O)[C@H](CCCCN)NC(=O)[C@@H]3CSSC[C@@H](C(=O)N[C@H](C(=O)N4CCC[C@H]4C(=O)N[C@@H](CCCCN)C(=O)O)[C@@H](C)O)NC(=O)[C@H](Cc4c[nH]cn4)NC(=O)[C@H](CSSC[C@H](NC(=O)[C@H](CCC(N)=O)NC(=O)[C@H](CCCNC(=N)N)NC(=O)[C@H](CO)NC1=O)C(=O)N[C@@H](CC(C)C)C(=O)N[C@@H](CCC(=O)O)C(=O)N1CCC[C@H]1C(=O)N3)NC(=O)[C@H](CCCCN)NC(=O)CNC(=O)[C@H](CC(N)=O)NC(=O)[C@H](CCSC)NC2=O [G22Nal] (H-GVIINVKCKISRQCLEPCKKA[1Nal]MRFGKCMNGKCHCTPK-OH; disulfide 8-28, 14-33, 18-35)	10.6	10.3
CC[C@H](C)[C@@H]1NC(=O)[C@H](CCCCN)NC(=O)[C@@H](NC(=O)[C@H](CCCCN)NC(=O)[C@@H](NC(=O)[C@H](CC(N)=O)NC(=O)[C@@H](NC(=O)[C@@H](NC(=O)[C@@H](NC(=O)CN)C(C)C)[C@@H](C)CC)[C@@H](C)CC)C(C)C)CSSC[C@@H]2NC(=O)[C@H](CCCCN)NC(=O)CNC(=O)[C@H](Cc3ccccc3)NC(=O)[C@H](CCCNC(=N)N)NC(=O)[C@H](CCSC)NC(=O)[C@H](CCCNC(=N)N)NC(=O)[C@H](C)NC(=O)[C@H](CCCCN)NC(=O)[C@H](CCCCN)NC(=O)[C@@H]3CSSC[C@@H](C(=O)N[C@H](C(=O)N4CCC[C@H]4C(=O)N[C@@H](CCCCN)C(=O)O)[C@@H](C)O)NC(=O)[C@H](Cc4c[nH]cn4)NC(=O)[C@H](CSSC[C@H](NC(=O)[C@H](CCC(N)=O)NC(=O)[C@H](CCCNC(=N)N)NC(=O)[C@H](CO)NC1=O)C(=O)N[C@@H](CC(C)C)C(=O)N[C@@H](CCC(=O)O)C(=O)N1CCC[C@H]1C(=O)N3)NC(=O)[C@H](CCCCN)NC(=O)CNC(=O)[C@H](CC(N)=O)NC(=O)[C@H](CCSC)NC2=O [G22R] (H-GVIINVKCKISRQCLEPCKKARMRFGKCMNGKCHCTPK-OH; disulfide 8-28, 14-33, 18-35)	0.349	0.292
